Experiments:
Type in all cases: in vivo
[1] = system: corn; assay: Test Example 2: phytotoxicity to corn; set-up: key: No harm: Phytotoxicity is hardly seen.; Slight phytotoxicity which does not affect the growth of corn is seen.; Light phytotoxicity and light growth inhibition of corn are seen.; Middle phytotoxicity and growth inhibition of corn are seen.; Serious phytotoxicity and serious growth inhibition of corn are seen; conditions: corn at 2-leaf stage, 10 days after application
Protocol: (§1) The evaluation of phytotoxicity is as follows:
(§2) No harm: Phytotoxicity is hardly seen.
(§3) Light: Light phytotoxicity and light growth inhibition of corn are seen.
(§4) Middle: Middle phytotoxicity and growth inhibition of corn are seen.
(§5) Serious: Serious phytotoxicity and serious growth inhibition of corn are seen.
(§6) Plastic pots having a diameter of 11 cm and a depth of 8 cm were filled with upland soil, and seeded with common cocklebur (Xanthium strumarium) . The test plants were grown in a greenhouse for 5 days. After that, corn was further seeded in each of the above pots and the test plants were grown in the greenhouse for further 16 days. Emulsifiable concentrate comprising compound A or Comparative compound obtained by well mixing 5 parts of compound A or Comparative compound, 6 parts of Sorpol 3005X (produced by Toho Chemical Industry, Co., Ltd.) and 89 parts of xylene was diluted with prescribed amount of water, and the dilution was applied over the test plants uniformly using a small sprayer. The leaf stage of the corns grown for 16 days were 2-leaf stage. After the application, the test plants were grown in the greenhouse for 10 days and then, herbicidal activity and phytotoxicity to corn were examined.

[2] = system: common cocklebur (Xanthium strumarium); assay: Test Example 2: foliar application in greenhouse pots, herbicidal activity; set-up: key: “0” means that there was no or little difference in the degree of germination or growth between the treated and the untreated tested plants at the time of examination; “10” means that the test plants died completely or their germination or growth was completely inhibited; conditions: index 0 to 10, 10 days after application
Protocol: as §1, §6

[3] = system: velvetleaf (Abutilon theophrasti); assay: Test Example 1: foliar application in greenhouse pots, herbicidal activity; set-up: key: “0” means that there was no or little difference in the degree of germination or growth between the treated and the untreated tested plants at the time of examination; “10” means that the test plants died completely or their germination or growth was completely inhibited; conditions: index 0 to 10, 10 days after application
Protocol: as §1
(§7) Plastic pots having a diameter of 11 cm and a depth of 8 cm were filled with upland soil, and seeded with common lambsquarters (Chenopodium album), ivyleaf morningglory (Ipomoea hederacea), velvetleaf (Abutilon theophrasti), and corn. The test plants were grown in a greenhouse for 7 days. After that, other corn was further seeded in each of the above pots and the test plants were grown in the greenhouse for further 19 days. Emulsifiable concentrate comprising compound A obtained by well mixing 5 parts of compound A, 6 parts of Sorpol 3005X (produced by Toho Chemical Industry, Co., Ltd.) and 89 parts of xylene was diluted with prescribed amount of water, and the dilution was applied over the test plants uniformly using a small sprayer. The leaf stage of the corns grown for 26 days and 19 days were 2-leaf stage and 1-leaf stage, respectively. After the application, the test plants were grown in the greenhouse for 10 days and then, herbicidal activity and phytotoxicity to corn were examined.

[4] = system: common lambsquarters (Chenopodium album); assay: as above; set-up: key: “0” means that there was no or little difference in the degree of germination or growth between the treated and the untreated tested plants at the time of examination; “10” means that the test plants died completely or their germination or growth was completely inhibited; conditions: index 0 to 10, 10 days after application
Protocol: as §1, §7

[5] = system: ivyleaf morningglory (Ipomoea hederacea); assay: as above; set-up: key: “0” means that there was no or little difference in the degree of germination or growth between the treated and the untreated tested plants at the time of examination; “10” means that the test plants died completely or their germination or growth was completely inhibited; conditions: index 0 to 10, 10 days after application
Protocol: as §1, §7

[6] = system: corn; assay: Test Example 1: phytotoxicity to corn; set-up: key: No harm: Phytotoxicity is hardly seen.; Slight phytotoxicity which does not affect the growth of corn is seen.; Light phytotoxicity and light growth inhibition of corn are seen.; Middle phytotoxicity and growth inhibition of corn are seen.; Serious phytotoxicity and serious growth inhibition of corn are seen; conditions: 10 days after application; for Phytotoxicity C1: corn at 1-leaf stage; for Phytotoxicity C2: corn at 2-leaf stage
Text: as §1, §2, §3, §4, §5, §7

COC(=O)CSc1cc(-n2c(=O)cc(C(F)(F)F)n(C)c2=O)c(F)cc1Cl [Comparative compound, reference compound]
8: Herbicidal activity Cocklebur ([2]; dosage 2.5 g/ha)
No harm: Phytotoxicity corn ([1]; dosage 2.5 g/ha)
light: Phytotoxicity corn ([1]; dosage 10 g/ha)
10: Herbicidal activity Cocklebur ([2]; dosage 5 g/ha) | Herbicidal activity Cocklebur ([2]; dosage 10 g/ha)
Slight: Phytotoxicity corn ([1]; dosage 5 g/ha)

COC(=O)C(C)Oc1cc(-n2c(=O)cc(C(F)(F)F)n(C)c2=O)c(F)cc1Cl (stereo not drawn) [Compound A, methyl 2-[2-chloro-4-fluoro-5-{3-methyl-2,6-dioxo-4-(trifluoromethyl)-1,2,3,6-tetrahydropyrimidin-1-yl}phenoxy]propionate]
No harm: Phytotoxicity C1 ([6]; dosage 5 g/ha) | Phytotoxicity C1 ([6]; dosage 10 g/ha) | Phytotoxicity C2 ([6]; dosage 5 g/ha) | Phytotoxicity C2 ([6]; dosage 10 g/ha) | Phytotoxicity C2 ([6]; dosage 20 g/ha) | Phytotoxicity corn ([1]; dosage 2.5 g/ha) | Phytotoxicity corn ([1]; dosage 5 g/ha) | Phytotoxicity corn ([1]; dosage 10 g/ha)
10: Herbicidal activity Ve ([3]; dosage 5 g/ha) | Herbicidal activity Ve ([3]; dosage 10 g/ha) | Herbicidal activity Ve ([3]; dosage 20 g/ha) | Herbicidal activity La ([4]; dosage 10 g/ha) | Herbicidal activity La ([4]; dosage 20 g/ha) | Herbicidal activity Mo ([5]; dosage 5 g/ha) | Herbicidal activity Mo ([5]; dosage 10 g/ha) | Herbicidal activity Mo ([5]; dosage 20 g/ha) | Herbicidal activity Cocklebur ([2]; dosage 2.5 g/ha) | Herbicidal activity Cocklebur ([2]; dosage 5 g/ha) | Herbicidal activity Cocklebur ([2]; dosage 10 g/ha)
Slight: Phytotoxicity C1 ([6]; dosage 20 g/ha)
9: Herbicidal activity La ([4]; dosage 5 g/ha)
